This assay has as its system ELAC_205. To be noted: laccase; sodium acetate buffer; optimum pH 1.0, 50 °C (kinetic assay conditions not stated separately).

On to `CCn1c(=NN=c2sc3cc(S(=O)(=O)O)ccc3n2CC)sc2cc(S(=O)(=O)O)ccc21` [ABTS, 2, 2’-azino-bis (3-ethylbenzothiazoline-6-sulfonic acid)], for which the Michaelis constant (Km) stood at 360 ± 70 µM.

The record behind these values is publication PMC10870720, “Lignin bioconversion based on genome mining for ligninolytic genes in Erwinia billingiae QL-Z3” (Biotechnology for Biofuels and Bioproducts, 2024).
